In patent publication US11840499B2, “Biobased-fatty acid arginates” (priority 2020, dated 2023):
Like-named read-outs stand apart in the source and are kept apart here.

Key:
[1] = Surfactant properties: surface tension by drop image method, CMC; assay type: physicochemical; conditions: aqueous solution
Method: Samples of the analyte were weighed and dissolved in distilled water to make a 10 mM stock solution. The stock solution was then subsequently diluted to make 5 mM, 1 mM, 0.5 mM, 0.25 mM, 0.125 mM, and 0.0625 mM solutions. The series of solutions were used to measure the surface tension using a drop image method with a surface tension instrument. Measurement for each sample was done in triplicate and the average value was calculated. Critical micelle concentration (CMC) is the concentration above which micelles form in the surfactant solution.

[2] = system: Gram-negative Escherichia coli (ATCC 700728); assay: microbe, parasite or virus in culture; assay type: cell-based; conditions: for MIC / MBC: E. coli; for MIC: lowest concentration with no color change (no active growth); for MBC: no viable growth on TSA, 37° C., 24 h
Method: (§1) Antimicrobial activity studies were performed using standard methods. For all compounds, at least 3 independent replicates of quadruplicate tests were conducted. The minimum inhibitory concentration (MIC) was determined as the lowest test compound concentration for which no color change (no active growth) occurred. Minimum bactericidal concentration (MBC) was determined by spreading 100 μl from each growth-negative well onto TSA and incubating at 37° C. for 24 h. MBC was the […] where no viable growth occurred.

[3] = system: Gram-positive Listeria innocua (ATCC 33090); assay: Antimicrobial activity (MIC/MBC) against Listeria innocua; assay type: cell-based
Method: as §1

[4] = L. innocua, lowest concentration with no color change (no active growth)
[5] = L. innocua, no viable growth on TSA, 37° C., 24 h
[6] = Escherichia coli, ATCC700728, read-out: MIC
[7] = Escherichia coli, ATCC700728, read-out: MBC
[8] = Listeria innocua, ATCC33090, 24 h

Compound	MIC [2] [ppm]	MBC [2] [ppm]	MIC [3, 4] [ppm]	MBC [3, 5] [ppm]	MIC [2, 6] [µg/mL]	MBC [2, 7] [µg/mL]	other results
CCCCCCCCCCCCOS(=O)(=O)[O-].[Na+] [SDS]							critical micelle concentration (CMC), compared to LAE [1]: much higher; surface tension level reached with increasing surfactant concentration ([1]; 0.0625-10 mM): 38 mN/m
Soy thymol arginate	>232.7	>232.7	3.6	14.5			
CCCCCCCCCCCCCCCCCC(=O)N[C@@H](CCCNC(=N)N)C(=O)OCC [Stearic arginate]	>232.7	>232.7	14.5	29.1			
CCCCCCCC/C=C\CCCCCCCC(=O)N[C@@H](CCCNC(=N)N)C(=O)OCC [Oleic arginate]	116.4	116.4	3.6	3.6			antimicrobial activity (in words) ([2]; Escherichia coli (ATCC 700728)): weak activity
Isostearic arginate	>232.7	>232.7	3.6	7.3			
Isooleic arginate	>232.7	>232.7	1.8	1.8			
Oleic phenol arginate	>232.7	>232.7	1.2	5.0			
Isooleic acid	>232.7	>232.7	>232.7	>232.7			
CCCCCCCCCCCC(=O)N[C@@H](CCCNC(=N)N)C(=O)OCC.Cl [Ethyl lauroyl arginate, ethyl-N^α-lauroyl-L-arginate HCl, reference compound]					7.3	7.3	MIC ([3]; Listeria innocua, ATCC33090, L. innocua, lowest concentration with no color change (no active growth), read-out: MIC): 7.3 µg/mL; MBC ([3]; Listeria innocua, ATCC33090, L. innocua, no viable growth on TSA, 37° C., 24 h, read-out: MBC): 14.5 µg/mL
N=C(N)NCCC[C@H](N)C(=O)O [L-arginine (commercial), L-arginine]			>232.7	>232.7	> 233	> 233	MIC ([3]; Listeria innocua, ATCC33090): > 233 µg/mL; MBC [3, 8]: > 233 µg/mL
CCCCCCCC/C=C\CCCCCCCC(=O)O [Oleic acid]			>232.7	>232.7	> 233	> 233	MIC ([3]; Listeria innocua, ATCC33090): > 233 µg/mL; MBC [3, 8]: > 233 µg/mL
CCOC(=O)[C@@H](N)CCCNC(=N)N.Cl.Cl [L-arginine ethyl ester dihydrochloride]					> 233	> 233	MIC ([3]; Listeria innocua, ATCC33090): > 233 µg/mL; MBC [3, 8]: > 233 µg/mL
